Reference: ChEMBL document CHEMBL1152324, “Protolimonoids from Melia toosendan” (J Nat Prod, 2009)

Legend:
Format in all cases: functional, cell-based
[1] = test system: HL-60; assay: Cytotoxicity against human HL60 cells by SRB assay
[2] = test system: MCF7; assay: Cytotoxicity against human MCF7 cells by SRB assay
[3] = test system: HT-29; assay: Cytotoxicity against human HT-29 cells by SRB assay

Structure (SMILES) | IC50 [1] [µM] | IC50 [2] [µM] | IC50 [3] [µM]
CC(C)=CCCC(C(=O)O)[C@@H]1[C@@H](O)C[C@]2(C)C3=CC[C@H]4C(C)(C)[C@@H](O)CC[C@]4(C)[C@H]3CC[C@@]12C (some centres not stated) [TOOSENDANIC ACID A] | < 10 | < 10 | < 10
COc1cccc2c1C(=O)c1c(O)c3c(c(O)c1C2=O)C[C@@](O)(C(=O)CO)C[C@@H]3O[C@H]1C[C@H](N)[C@H](O)[C@H](C)O1 [DOXORUBICIN] | 0.016 | 0.12 | 0.33
CC(C)=CCCC(C(=O)O)[C@@H]1[C@@H](O)C[C@]2(C)C3=CC[C@H]4C(C)(C)[C@H](O)CC[C@]4(C)[C@H]3CC[C@@]12C (some centres not stated) [TOOSENDANIC ACID B] | < 10 | < 10 | < 10
CC(C)(O)[C@@H]1CC[C@H]([C@@H]2[C@@H](O)C[C@]3(C)C4=CC[C@H]5C(C)(C)C(=O)CC[C@]5(C)[C@H]4CC[C@@]23C)[C@H]1O [TOOSENDANONE A] | < 10 | < 10 | < 10
